Patent US10472341B2, “Bicyclic tetrahydrothiazepine derivatives useful for the treatment of neoplastic and/or infectious diseases” (APEIRON BIOLOGICS AG, priority 2015, dated 2019)
pEC50: −log10 of the molar value. Where two headings read alike, the source gives them in different places.

Tests used:
[1] = test system: aCD3/aCD28-stimulated human PBMCs; assay: Cytokine production in aCD3/aCD28 stimulated human PBMCs; format: cell-based; conditions: PBMC, 18 h
Outline: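 Ficoll-isolated human PBMCs at 1e6 cells/mL in X-Vivo15, stimulated with soluble anti-CD3/CD28 (OKT3 and 28.2, 1 μg/mL each) plus compound for 18 h at 37° C. Supernatant cytokines quantified by MSD or HTRF.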

[2] = test system: aCD3/aCD28-stimulated human CD4+-T-cells; assay: IL-2 production and activation markers in aCD3/aCD28 stimulated isolated human CD4+-T-cells; format: cell-based; conditions: IL-2 production at 3 μM compound
Procedure: • Buffy coat content was transferred to sterile plastic bottle and filled up to 480 ml with PBS, and distributed equally to 16×50 ml tubes (30 ml/tube) • Underlayed with ˜11 ml Lymphoprep and centrifuged 20 min (2200 rpm) • The interphase containing lymphocytes was taken off with transfer pipette, cells were washed twice with PBS and pooled to one tube to determine cell count (Coulter Diff ACT) Isolation of Immune Cell Subfractions from PBMCs by MACS • PBMCs were resuspended in MACS buffer (80 μl MACS-buffer/10^7 cells) and cells were isolated with Auto-MACS device using respective kits following manufacturer's recommendations TCR Stimulation and Measurement of T Cell Activation
Isolated T cells were plated in Xvivo medium at 1.5*10 ^5 cells per in 96 well culture plates and TCR-stimulated with anti-CD3/28 mAbs in the presence of compound as indicated. Cytokine production was determined at 24 h or 48 h following TCR stimulation in cell culture supernatants using commercially available ELISA kits (BD and eBioscience) as recommended by the manufacturer. T cell proliferation and CD25 expression (CD25-PC5 reagent purchased from Beckman Coulter) was determined by flow cytometry (Beckman-Coulter FC500) and analysed with Kaluza Software. For measurement of CD69 expression, isolated CD4 and CD8 T cells were plated in Xvivo medium at […] per in 96 well culture plates and TCR-stimulated with anti-CD3/28 mAbs in the presence of compound. CD69 expression was determined at 24 h following TCR stimulation by flow cytometry (CD4eF450, CD8APCeF780 and CD69-PC7 reagent purchased from eBioscience) and analysed with Kaluza Software.
Buffy coats were obtained from Austrian Red Cross, diluted 3 fold with PBS and layered onto an isotonic Ficoll separating solution d=1.077 g/m in 50 ml centrifuge tubes. The tubes were centrifuged at 914 g for 25 min at room temperature with the brakes off. The PBMC layer was removed and washed twice with ice-cold PBS. CD4 T cells were isolated using CD4 microbeads (Milteny) and the AutoMACS device following manufacturer's instructions.
Compound examples of the present invention were classified according to the following activity criteria and are listed in Table 4a: • Activity Class A: IL-2 production at 3 μM compound concentration >10 ng/mL • Activity Class B: IL-2 production at 3 μM compound concentration between 2-10 ng/mL • Activity Class C: IL-2 production at 3 μM compound concentration between 2-fold increase as compared to mean IL-2 production of stimulated cells in the absence of compounds and <2 ng/mL

[3] = enhancement of IFN-γ production, read-out: Activity Class IFN-γ
[4] = enhancement of IL-2 production, read-out: Activity Class IL-2

Compound | pEC50 [1, 3] | pEC50 [1, 4] | Activity Class CD4+ [2]
C=CCCNC(=O)c1ccc2c(c1)N(Cc1ccc(Cl)cc1)C(=O)[C@@H](N)CS2(=O)=O.Cl [Example 84, (3R)-3-amino-N-(but-3-en-1-yl)-5-[(4-chlorophenyl)methyl]-1,1,4-trioxo-2,3,4,5-tetrahydro-1λ^6,5-benzothiazepine-7-carboxamide hydrochloride] | > 5.80 | 5.30 to 5.80 | B (IL-2 production at 3 μM compound concentration between 2-10 ng/mL)
CCCCNC(=O)c1ccc2c(c1)N(Cc1ccc(C(C)(C)C)cc1)C(=O)[C@@H](N)CS2.Cl [Example 2, (3R)-3-amino-N-butyl-5-[(4-tert-butylphenyl)methyl]-4-oxo-2,3,4,5-tetrahydro-1,5-benzothiazepine-7-carboxamide hydrochloride] | > 5.80 | 5.30 to 5.80 | B (IL-2 production at 3 μM compound concentration between 2-10 ng/mL)
CC(C)NC(=O)c1ccc2c(c1)N(Cc1ccc(Cl)cc1)C(=O)[C@@H](N)CS2(=O)=O.Cl [Example 79, (3R)-3-amino-5-[(4-chlorophenyl)methyl]-1,1,4-trioxo-N-(propan-2-yl)-2,3,4,5-tetrahydro-1λ^6,5-benzothiazepine-7-carboxamide hydrochloride] | 5.30 to 5.80 | < 5.30 | B (IL-2 production at 3 μM compound concentration between 2-10 ng/mL)
Cl.N[C@H]1CS(=O)(=O)c2cc(F)c(C(=O)NC3CCC3)cc2N(Cc2ccc(Cl)cc2)C1=O [Example 86, (3R)-3-amino-5-[(4-chlorophenyl)methyl]-N-cyclobutyl-8-fluoro-1,1,4-trioxo-2,3,4,5-tetrahydro-1λ^6,5-benzothiazepine-7-carboxamide hydrochloride] | > 5.80 | 5.30 to 5.80 | B (IL-2 production at 3 μM compound concentration between 2-10 ng/mL)
C[C@@H](NC(=O)c1ccc2c(c1)N(Cc1ccc(Cl)cc1)C(=O)[C@@H](N)CS2)c1ccc(F)cc1.Cl [Example 38, (3R)-3-amino-5-[(4-chlorophenyl)methyl]-N-[(1R)-1-(4-fluorophenyl)ethyl]-4-oxo-2,3,4,5-tetrahydro-1,5-benzothiazepine-7-carboxamide hydrochloride] | 5.30 to 5.80 | 5.30 to 5.80 | C (IL-2 production at 3 μM compound concentration between 2-fold increase as compared to mean IL-2 production of stimulated cells in the absence of compounds and <2 ng/mL)
CCCC(=O)NNC(=O)c1ccc2c(c1)N(Cc1ccc(Cl)cc1)C(=O)[C@@H](N)CS2.Cl [Example 53, (3R)-3-amino-N′-butanoyl-5-[(4-chlorophenyl)methyl]-4-oxo-2,3,4,5-tetrahydro-1,5-benzothiazepine-7-carbohydrazide hydrochloride] | < 5.30 | < 5.30 | C (IL-2 production at 3 μM compound concentration between 2-fold increase as compared to mean IL-2 production of stimulated cells in the absence of compounds and <2 ng/mL)
CCNC(=O)c1ccc2c(c1)N(Cc1ccc(OC(F)(F)F)cc1)C(=O)[C@@H](N)CS2.Cl [Example 18, (3R)-3-amino-N-ethyl-4-oxo-5-{[4-(trifluoromethoxy)phenyl]methyl}-2,3,4,5-tetrahydro-1,5-benzothiazepine-7-carboxamide hydrochloride] | > 5.80 | 5.30 to 5.80 | C (IL-2 production at 3 μM compound concentration between 2-fold increase as compared to mean IL-2 production of stimulated cells in the absence of compounds and <2 ng/mL)
CC(NC(=O)c1ccc2c(c1)N(Cc1ccc(Cl)cc1)C(=O)[C@@H](N)CS2)c1ccc(F)cc1.Cl (stereo partly drawn) [Example 34, (3R)-3-amino-5-[(4-chlorophenyl)methyl]-N-[1-(4-fluorophenyl)ethyl]-4-oxo-2,3,4,5-tetrahydro-1,5-benzothiazepine-7-carboxamide hydrochloride] | 5.30 to 5.80 | 5.30 to 5.80 | C (IL-2 production at 3 μM compound concentration between 2-fold increase as compared to mean IL-2 production of stimulated cells in the absence of compounds and <2 ng/mL)
CNC(=O)c1ccc2c(c1)N(Cc1ccc(OC(F)(F)F)cc1)C(=O)[C@@H](N)CS2.Cl [Example 17, (3R)-3-amino-N-methyl-4-oxo-5-{[4-(trifluoromethoxy)phenyl]methyl}-2,3,4,5-tetrahydro-1,5-benzothiazepine-7-carboxamide hydrochloride] |  | < 5.30 | C (IL-2 production at 3 μM compound concentration between 2-fold increase as compared to mean IL-2 production of stimulated cells in the absence of compounds and <2 ng/mL)
COc1ccc(CNC(=O)c2ccc3c(c2)N(Cc2ccc(OC(F)(F)F)cc2)C(=O)[C@@H](N)CS3)cc1.Cl [Example 7, (3R)-3-amino-N-[(4-methoxyphenyl)methyl]-4-oxo-5-{[4-(trifluoromethoxy)-phenyl]methyl}-2,3,4,5-tetrahydro-1,5-benzothiazepine-7-carboxamide hydrochloride] | > 5.80 | 5.30 to 5.80 | B (IL-2 production at 3 μM compound concentration between 2-10 ng/mL)
COc1ccc([C@H](C)NC(=O)c2ccc3c(c2)N(Cc2ccc(Cl)cc2)C(=O)[C@@H](N)CS3)cc1 [Example 35, (3R)-3-amino-5-[(4-chlorophenyl)methyl]-N-[(1S)-1-(4-methoxyphenyl)ethyl]-4-oxo-2,3,4,5-tetrahydro-1,5-benzothiazepine-7-carboxamide] | < 5.30 | < 5.30 | C (IL-2 production at 3 μM compound concentration between 2-fold increase as compared to mean IL-2 production of stimulated cells in the absence of compounds and <2 ng/mL)
CC(C)NC(=O)c1ccc2c(c1)N(Cc1ccc(Cl)c(F)c1)C(=O)[C@@H](N)CS2(=O)=O.Cl [Example 89, (3R)-3-amino-5-[(4-chloro-3-fluorophenyl)methyl]-1,1,4-trioxo-N-(propan-2-yl)-2,3,4,5-tetrahydro-1λ^6,5-benzothiazepine-7-carboxamide hydrochloride] | 5.30 to 5.80 | < 5.30 | C (IL-2 production at 3 μM compound concentration between 2-fold increase as compared to mean IL-2 production of stimulated cells in the absence of compounds and <2 ng/mL)
Cl.N[C@H]1CS(=O)(=O)c2ccc(C(=O)NCCCC(F)(F)F)cc2N(Cc2ccc(Cl)cc2)C1=O [Example 80, (3R)-3-amino-5-[(4-chlorophenyl)methyl]-1,1,4-trioxo-N-(4,4,4-trifluorobutyl)-2,3,4,5-tetrahydro-1λ^6,5-benzothiazepine-7-carboxamide hydrochloride] | > 5.80 | > 5.80 | A (IL-2 production at 3 μM compound concentration >10 ng/mL)
COc1ccc([C@@H](C)NC(=O)c2ccc3c(c2)N(Cc2ccc(Cl)cc2)C(=O)[C@@H](N)CS3)cc1 [Example 27, (3R)-3-amino-5-[(4-chlorophenyl)methyl]-N-[(1R)-1-(4-methoxyphenyl)ethyl]-4-oxo-2,3,4,5-tetrahydro-1,5-benzothiazepine-7-carboxamide] | > 5.80 | 5.30 to 5.80 | B (IL-2 production at 3 μM compound concentration between 2-10 ng/mL)
Cc1nc(-c2ccc(CN3C(=O)[C@@H](N)CSc4ccc(C(=O)NCC5CCOCC5)cc43)cc2)no1.Cl [Example 44, (3R)-3-amino-5-{[4-(5-methyl-1,2,4-oxadiazol-3-yl)phenyl]methyl}-N-(oxan-4-ylmethyl)-4-oxo-2,3,4,5-tetrahydro-1,5-benzothiazepine-7-carboxamide hydrochloride] | 5.30 to 5.80 | < 5.30 | C (IL-2 production at 3 μM compound concentration between 2-fold increase as compared to mean IL-2 production of stimulated cells in the absence of compounds and <2 ng/mL)
